Measured values reported in the supplement of paper PMC11208160.

Assay: recombinant UMI read abundance after kanamycin selection (control-corrected) (log10(CPM+1)); higher = more efficient recombination; extreme values may be limits of the assay; sequences stand for … in AGTGCAGAGAAAATCGGCCAGTTTTCTCTGCCTGCAGTCCGCATGCCGTGGGACCCCTTGGGTTCTAACCTGTTGCCTAGATTTATGCAGCGGACTGCCTTTCTCCCAAAGTGATAAACCGG…AGGTTGGTTTCACT; site = the 11-nt donor
Procedure, shortened: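 Pooled Escherichia coli screen of donor and donor-binding-loop pairs for the IS621 bridge recombinase. Each pair sits with a 12-nt UMI on a plasmid carrying a promoterless kanamycin gene. The library was co-electroporated with a target plasmid encoding a fixed target and T7-inducible recombinase, then plated with IPTG (0.07 mM) plus kanamycin, or unselected, each in two replicates. Recombinant UMIs were PCR-amplified across the donor–target junction and sequenced. Counts became CPM, averaged over replicates, scaled by control-derived factors and reported as log10(CPM+1).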
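Further: IS621 bridge recombinase in Escherichia coli cells against a fixed T5 target plasmid.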

Sequence | recombinant UMI read abundance (log10)
CTAGTATCATGGACCGGTTTTCCCGGTAATCCGTATTTGAC (site CTGGTATCTTT) | 0.0145
CTAGTATCATGGACCGGTTTTCCCGGTAATCCGTATTTGAC (site CTGGTTTCTGT) | 0
CTAGTATCATGGACCGGTTTTCCCGGTAATCCGTATTTGAC (site CTTGGATCTGT) | 0
CTAGTATCATGGACCGGTTTTCCCGGTAATCCGTATTTGAC (site CTTGTACCTGT) | 0.169
CTAGTATCATGGACCGGTTTTCCCGGTAATCCGTATTTGAC (site CTTGTATCTAT) | 0
CTAGTATCATGGACCGGTTTTCCCGGTAATCCGTATTTGAC (site CTTGTATCTGC) | 0
CTAGTATCATGGACCGGTTTTCCCGGTAATCCGTATTTGAC (site CTTGTATCTGT) | 1.57
CTAGTATCATGGACCGGTTTTCCCGGTAATCCGTATTTGAC (site CTTGTGTCTGT) | 0
CTAGTATCATGGACCGGTTTTCCCGGTAATCCGTATTTGAC (site CTTTTATCTGT) | 1
CTAGTATCATGGACCGGTTTTCCCGGTAATCCGTATTTGAC (site GGAGTATCTGT) | 2.07
CTAGTATCATGGACCGGTTTTCCCGGTAATCCGTATTTGAC (site GTAGGATCTGT) | 0.00691
CTAGTATCATGGACCGGTTTTCCCGGTAATCCGTATTTGAC (site GTAGTACCTGT) | 0
CTAGTATCATGGACCGGTTTTCCCGGTAATCCGTATTTGAC (site GTAGTATCTAT) | 0
CTAGTATCATGGACCGGTTTTCCCGGTAATCCGTATTTGAC (site GTAGTATCTGC) | 0
CTAGTATCATGGACCGGTTTTCCCGGTAATCCGTATTTGAC (site GTAGTATCTGT) | 0
CTAGTATCATGGACCGGTTTTCCCGGTAATCCGTATTTGAC (site GTAGTGTCTGT) | 0.0419
CTAGTATCATGGACCGGTTTTCCCGGTAATCCGTATTTGAC (site GTATTATCTGT) | 0
CTAGTATCATGGACCGGTTTTCCCGGTAATCCGTATTTGAC (site GTTGTATCTGT) | 0.0569
CTAGTATCATGGACCGGTTTTCCCGGTAATCCGTATTTGAC (site TAAGTATCTGT) | 0

Sequence | recombinant UMI read abundance (log10)
CTAGTATCATGGACCGGTTTTCCCGGTAATCCGTATTTGAC (site TTAATATCTGT) | 0
CTAGTATCATGGACCGGTTTTCCCGGTAATCCGTATTTGAC (site TTAGAATCTGT) | 0
CTAGTATCATGGACCGGTTTTCCCGGTAATCCGTATTTGAC (site TTAGTAACTGT) | 0
CTAGTATCATGGACCGGTTTTCCCGGTAATCCGTATTTGAC (site TTAGTATCTCT) | 0
CTAGTATCATGGACCGGTTTTCCCGGTAATCCGTATTTGAC (site TTAGTATCTGA) | 0
CTAGTATCATGGACCGGTTTTCCCGGTAATCCGTATTTGAC (site TTAGTATCTGT) | 1.71
CTAGTATCATGGACCGGTTTTCCCGGTAATCCGTATTTGAC (site TTAGTCTCTGT) | 0
CTAGTATCATGGACCGGTTTTCCCGGTAATCCGTATTTGAC (site TTCGTATCTGT) | 0
CTAGTATCATGGACCGGTTTTCCCGGTAATCCGTATTTGAT (site CTAGTATCTAT) | 2.21
CTAGTATCATGGACCGGTTTTCCCGGTAATCCGTATTTGAT (site CTAGTATCTCT) | 0.557
CTAGTATCATGGACCGGTTTTCCCGGTAATCCGTATTTGAT (site CTAGTATCTGT) | 1.31
CTAGTATCATGGACCGGTTTTCCCGGTAATCCGTATTTGAT (site CTAGTATCTTT) | 1.07
CTAGTATCATGGACCGGTTTTCCCGGTAATCCGTATTTGCA (site CTAGTATCTGT) | 0.00642
CTAGTATCATGGACCGGTTTTCCCGGTAATCCGTATTTGCA (site CTAGTATCTTG) | 2.72
CTAGTCCCATGGACCGGTTTTCCCGGTAATCCGTATTTGCT (site CTAGTCCCTAG) | 1.79
CTAGTCCCATGGACCGGTTTTCCCGGTAATCCGTATTTGGA (site CTAGTCCCTTC) | 0.281
CTAGTCGCATGGACCGGTTTTCCCGGTAATCCGTATTTGCG (site ATAGTCGCTCG) | 0.00637
CTAGTCGCATGGACCGGTTTTCCCGGTAATCCGTATTTGCG (site CTAGTCGCTCG) | 0.966
CTAGTCGCATGGACCGGTTTTCCCGGTAATCCGTATTTGCG (site GTAGTCGCTCG) | 0

Sequence | recombinant UMI read abundance (log10)
CTAGTCGCATGGACCGGTTTTCCCGGTAATCCGTATTTGCG (site TTAGTCGCTCG) | 0.0191
CTAGTCTCATGGACCGGTTTTCCCGGTAATCCGTATTTGAC (site CTAGTATCTGT) | 0.627
CTAGTCTCATGGACCGGTTTTCCCGGTAATCCGTATTTGAC (site CTAGTCTCTGT) | 2.93
CTAGTCTCATGGACCGGTTTTCCCGGTAATCCGTATTTGAC (site CTAGTGTCTGT) | 0
CTAGTCTCATGGACCGGTTTTCCCGGTAATCCGTATTTGAC (site CTAGTTTCTGT) | 0.799
CTAGTGTCATGGACCGGTTTTCCCGGTAATCCGTATTTGAC (site CTAGTATCTGT) | 1.23
CTAGTGTCATGGACCGGTTTTCCCGGTAATCCGTATTTGAC (site CTAGTCTCTGT) | 0
CTAGTGTCATGGACCGGTTTTCCCGGTAATCCGTATTTGAC (site CTAGTGTCTGT) | 0
CTAGTGTCATGGACCGGTTTTCCCGGTAATCCGTATTTGAC (site CTAGTTTCTGT) | 0
CTAGTTACATGGACCGGTTTTCCCGGTAATCCGTATTTGTC (site CTAGTTACTGA) | 2.57
CTATAAACATGGACCGGTTTTCCCGGTAATCCGTATTTGGA (site CTATAAACTTC) | 2.34
CTATATGCATGGACCGGTTTTCCCGGTAATCCGTATTTGTA (site CTATATGCTTA) | 2.55
CTATCATCATGGACCGGTTTTCCCGGTAATCCGTATTTGCG (site CGATCATCTAG) | 0
CTATCATCATGGACCGGTTTTCCCGGTAATCCGTATTTGCG (site CTATCATCTCG) | 1.87
CTATGATCATGGACCGGTTTTCCCGGTAATCCGTATTTGCG (site CTATGATCTCG) | 3.16
CTATTACCATGGACCGGTTTTCCCGGTAATCCGTATTTGAC (site CTAGTATCTGT) | 0
CTATTACCATGGACCGGTTTTCCCGGTAATCCGTATTTGAC (site CTATTACCTGT) | 0
CTATTCCCATGGACCGGTTTTCCCGGTAATCCGTATTTGTT (site CTATTCCCTAA) | 1.42
CTCAAGACATGGACCGGTTTTCCCGGTAATCCGTATTTGGG (site CTCAAGACTCC) | 0
